Source: patent US20050202467A1, “Novel spliced 5-HT1A receptors and methods, kits, and uses relating thereto” (Philadelphia Health and Education Corporation (d/b/a MCP …, priority 2003, published 2005)

Experiments:
primary T cells = assay: response of mitogen (PHA) stimulated T-cells to selective 5-HT1A inhibitors; format: cell-based; details: mitogen (PHA) stimulated T cell cultures, at the concentrations tested (FIG. 2)
[1] = tested on: neoplastic B and T cell lines; assay: inhibition of activation of neoplastic B and T cell lines; format: cell-based
Text: Each of the tested compounds has a high affinity for the 5-HT1A receptor and was expected to inhibit the receptor's activity equally well.

## COc1ccccc1N1CCN(CCCCN2C(=O)c3ccccc3C2=O)CC1 [NAN-190]
Primary T cells
  inhibition of the activation of primary T cells: reproducibly inhibited
[1]
  inhibition of the activation of neoplastic B and T cell lines: reproducibly inhibited

## COc1ccccc1N1CCN(CCN(C(=O)c2ccc(F)cc2)c2ccccn2)CC1 [p-MPPF]
Primary T cells
  inhibition of the activation of primary T cells: little or no effects

## WAY-100635
Primary T cells
  inhibition of the activation of primary T cells: little or no effects
